# Test results taken from US20150125915A1, “Method for Producing Lactic Acid” (Kao Corporation, priority 2012, published 2015).
# Key:
# [1] = system: Rhizopus oryzae NBRC 4707; assay: Evaluation of ability to produce lactic acid-2, strain NBRC 4707; assay type: cell-based; conditions: 0.5% (w/v) at spore germination, control of the strain without surfactant = 100
# Experimental: (1) Spore suspensions were prepared in the same way as in Production Example 1 using Rhizopus oryzae NBRC 4707, NBRC 4785, NBRC 5384 (=JCM14625), and NBRC 5418 strains obtained from a culture collection NBRC.
# (2) Mycelia were prepared from the spores of each strain under the same conditions as in Production Example 2 involving stirring at 100 rpm using 60 mL of a PDB medium non-supplemented or supplemented with 0.5% (w/v) (final concentration) of the surfactant sorbitan monolaurate (Rheodol(R) SP-L10, manufactured by Kao Corp.).
# (3) The total amount of the fungus bodies obtained in (2) was inoculated to 100 mL of an inorganic culture medium under the same conditions as in Production Example 3 to grow the mycelia. […]
# 30 g of the prepared wet fungus bodies of each strain of the genus Rhizopus was inoculated to 100 mL of an inorganic culture medium for lactic acid production evaluation (composition: 12.5% glucose, 0.1% ammonium sulfate, 0.06% potassium dihydrogen phosphate, 0.025% magnesium sulfate heptahydrate, 0.009% zinc sulfate heptahydrate, and 6.25% calcium carbonate; all the concentrations mean % (w/v)) applied to a 500-mL Erlenmeyer flask, and then cultured at 33.5° C. with stirring at 170 rpm. The production rate of lactic acid was determined by the same procedures as in Test Example 2. […]
# [2] = system: Rhizopus oryzae JCM14625 strain (=NBRC 5384); assay: LDH activity evaluation-1: mycelia prepared from spores in surfactant-supplemented PDB medium, LDH activity of fungus body extract; assay type: cell-based
# Experimental: A loopful of a cryopreserved spore suspension sample (−80° C.) of a Rhizopus oryzae JCM14625 strain (=NBRC 5384) obtained from a culture collection Riken BioResource Center (BRC) was inoculated to a PDA medium (Difco Potato Dextrose Agar, manufactured by Becton, Dickinson and Company) and then statically cultured at 30° C. for from 7 to 10 days. After visual confirmation of hyphal growth and blackening at the ends of hyphae associated with sporulation, from 30 to 40 mL of saline was added thereto. Spores, together with hyphae, were collected into a 50-mL centrifugal tube with a lid (manufactured by Greiner bio-one) using a platinum loop and then vigorously mixed in the tube. The spore suspension thus mixed was filtered through 3GP100 cylindrical funnel-shaped glass filter (manufactured by Shibata Scientific Technology Ltd.). The resulting filtrate was used as a spore solution. The number of spores in the spore solution was measured using a hemocytometer (D=1/50 mm· 1/400 mm^2) after appropriate dilution with saline.
# 80 mL of a PDB medium non-supplemented or supplemented with 0.5% (w/v) (final concentration) of each surfactant described below was applied to a 200-mL baffled Erlenmeyer flask (manufactured by Asahi Glass Co., Ltd.). The Rhizopus oryzae spore suspension prepared in Production Example 1 was inoculated thereto at a dose of 1×10^3 spores/mL of the medium and then cultured at 27° C. for 3 days with stirring at 170 rpm. Since mycelia would remain on the filter, the cultures were filtered through a stainless sieve of 250 μm in mesh size (manufactured by AS ONE Corp.) sterilized in advance to recover fungus bodies onto the filter.
# From3.0 to 4.0 g (wet weight) of the recovered fungus bodies was inoculated to 100 mL of an inorganic culture medium (composition: 10% glucose, 0.1% ammonium sulfate, 0.06% potassium dihydrogen phosphate, 0.025% magnesium sulfate heptahydrate, 0.009% zinc sulfate heptahydrate, and 5.0% calcium carbonate; all the concentrations mean % (w/v)) applied to a 500-mL Erlenmeyer flask, and then cultured at 27° C. for approximately 40 hours with stirring at 220 rpm. Subsequently, the cultures thus obtained by culture in the inorganic culture medium were filtered using a stainless screen filter holder (manufactured by EMD Millipore) sterilized in advance to recover fungus bodies onto the filter. On this filter holder, the fungus bodies were further washed with 100 mL of saline. The saline used in washing was removed by suction filtration. The obtained fungus bodies were used in the following LDH activity evaluation and evaluation of the ability to fermentatively produce lactic acid.
# 6.0 g of the wet fungus bodies of the genus Rhizopus obtained in Production Example 3 was inoculated to 40 mL of an inorganic culture medium for lactic acid production evaluation (composition: 8.0% glucose, 0.1% ammonium sulfate, 0.06% potassium dihydrogen phosphate, 0.025% magnesium sulfate heptahydrate, 0.009% zinc sulfate heptahydrate, and 5.0% calcium carbonate; all the concentrations mean % (w/v)) applied to a 200-mL Erlenmeyer flask, and then cultured at 35° C. with stirring at 170 rpm. After 4.5-hour culture of the fungus bodies of the genus Rhizopus with stirring, the fungus bodies were filtered using a stainless screen filter holder (manufactured by EMD Millipore) sterilized in advance to recover fungus bodies onto the filter. On this filter holder, the fungus bodies were further washed with 100 mL of saline. The saline used in washing was removed by suction filtration. 0.3 g of the obtained fungus bodies was recovered into a 3-mL disruption tube (manufactured by Yasui Kikai Corp.). Metal cone for 3 mL (manufactured by Yasui Kikai Corp.) was added to the tube, which was then capped and then frozen in liquid nitrogen. The frozen 3-mL disruption tube was applied to Multi-Beads Shocker (manufactured by Yasui Kikai Corp.). The fungus bodies were disrupted at 1700 rpm for 10 seconds.
substance,measurement,setting,value
Sorbitan monolaurate,Production rate of lactic acid (relative value),[1],135 relative value
same,LDH activity compared with control fungus bodies (in words),"[2]; 0.5% (w/v) surfactant at spore germination, versus medium non-supplemented with the surfactant",higher LDH activity
same,LDH activity (relative value),"[2]; 0.5% (w/v) surfactant in PDB medium at spore germination, LDH activity in the absence of the surfactant = 100",267 relative value
